{
  "source": "patent US20100227806A1",
  "about": "“Use Of A Ghrelin Agonist To Improve Catabolic Effects Of Glucocorticoid Treatment” (priority 2006, published 2010)",
  "key": {"[1]": {"experiment": "Effects of pharmacological treatments on growth parameters in dexamethasone-treated young rats", "assay_type": "in vivo, Sprague-Dawley rats", "details": "for Final Body Weight: prepubertal male rats, dexamethasone 40 μg/kg ip daily from day 23, A 80 nmoles/kg sc three times daily from day 30; for Final Body Weight / Final Nose-Anal Length / Lee Obesity Index / Growth Rate / Epididymal Fat Pads: mean ± SEM of eight animals; for Final Nose-Anal Length / Lee Obesity Index / Growth Rate / Epididymal Fat Pads: same regimen; for Growth Rate: slope of growth curve; for Epididymal Fat Pads: weight at sacrifice", "method": "(§1) Thirty-two prepubertal male Sprague-Dawley rats approximately 21 days old and weighing between 45 and 55 grams, were obtained from Harlan, Italy (S. Pietro al Natisone, ITALY). During the study, the animals were maintained in accordance with the guidelines of the Italian Ministry of Health for the care and use of laboratory animals (Decreto legge 116/92). The animals were randomly divided into two treatment groups and kept in a controlled environment at a constant temperature of 21-23° C. with 12:12 light/dark exposure continuous period wherein the light exposure began at approximately 8:00 am and ended at approximately 8:00 pm. The animals were provided with water and food ad libitum consisting of an approximate 3200 calories/kg daily diet of standard pellet chow provided by Piccioni, Gessate-Milano, Italy (containing at least 19% protein, 3% fat and 56% carbohydrate).\n(§2) Beginning on the 23rd day (i.e., the animals were 23 days old), 16 of the study animals were treated intraperitoneally (Ip) daily with 40 μg/kg of either saline or dexamethasone sodium phosphate (sold under the trademark Decadron® by Merck Pharmaceuticals, West Point, Pa.). Beginning on the 30th day (i.e., the animals were 30 days old), the subgroup of 16 studied animals was further divided into groups of 8 and treated subcutaneously three times daily (at approximately 9:00 am, 1:00 pm and 5:00 pm) with either 80 nmoles/kg of the preferred ghrelin analog [Aib^2, Glu^3(NH-hexyl)]hGhrelin(1-28)-NH2 (IPSEN, Milford, Mass.) dissolved in a sterile saline solution with 0.25% bovine serum albumin or vehicle (the saline-bovine serum albumin solution alone). This regimen continued for 24 days during which time the studied animals were weighed two times per week. At irregular intervals, the cumulative food intake for a 24-hour period of time was measured. Beginning on the 46th day (i.e., the animals were 46 days old), the length of the test and control animals from nose to anus was measured (hereinafter referred to as “the nose-anal length”). On the 47th day (i.e., the animals were 47 days old), all food was denied to the test subjects commencing at 8:00 am. Small samples of blood were taken via percutaneous puncture of the tail to assess blood glucose levels during the treatment period.\n(§3) The test animals received two intravenous administrations of [Aib^2, Glu^3(NH-hexyl)]hGhrelin(1-28)-NH2 at approximately 9:00 am and 1:00 pm. The studied animals were sacrificed by rapid decapitation at approximately 2:00 pm, trunk blood collected for hormone level determinations, and the epididymal fat pads removed and weighed.\n(§4) Unless otherwise stated, the results reported in FIGS. 3-6 are expressed as the mean±SEM of eight replicate test subjects. Data was analyzed for statistical significance by one-way ANOVA which determines the variation (variance) within the groups and how that variation translates into variation (i.e. differences) between the groups, taking into account how many subjects there are in each group. […] The linear correlation analysis was performed either by Pearson's parametric test or by Spearman's nonparametric test. A P value below 0.05 was considered significant."}, "[2]": {"experiment": "24-h food intake and food efficiency in treated young rats", "assay_type": "in vivo, Sprague-Dawley rats", "from_the_text": "FIG. 4. Panel A: the effect of the different pharmacological treatment on 24-h food intake expressed as a percent of the control value. Data represented the mean±SEM of nine determinations performed at irregular intervals from day 33 to day 47 after birth. Panel B: the effect of the different pharmacological treatments on food efficacy calculated as a ratio between food intake (g) and […] measured over the same time interval at different stages of growth. Data represents the meant SEM of eight rats. *P<0.05; **<0.01 vs SAL-treated rats (Dunnett's test). Panel C: the effect of the different pharmacological treatments on the cumulative food intake measured over the indicated time intervals at different stages of growth.\nBeginning on the 23rd day (i.e., the animals were 23 days old), 16 of the study animals were treated intraperitoneally (Ip) daily with 40 μg/kg of either saline or dexamethasone sodium phosphate (sold under the trademark Decadron® by Merck Pharmaceuticals, West Point, Pa.). Beginning on the 30th day (i.e., the animals were 30 days old), the subgroup of 16 studied animals was further divided into groups of 8 and treated subcutaneously three times daily (at approximately 9:00 am, 1:00 pm and 5:00 pm) with either 80 nmoles/kg of the preferred ghrelin analog [Aib^2, Glu^3(NH-hexyl)]hGhrelin(1-28)-NH2 (IPSEN, Milford, Mass.) dissolved in a sterile saline solution with 0.25% bovine serum albumin or vehicle (the saline-bovine serum albumin solution alone). This regimen continued for 24 days during which time the studied animals were weighed two times per week. At irregular intervals, the cumulative food intake for a 24-hour period of time was measured. Beginning on the 46th day (i.e., the animals were 46 days old), the length of the test and control animals from nose to anus was measured (hereinafter referred to as “the nose-anal length”). […]\nFood efficiency was calculated as the ratio between body weight gain (in grams) and food intake (in grams) measured over the same time interval."}, "[3]": {"experiment": "Effects of pharmacological treatments on plasma hormones and glucose concentrations", "assay_type": "in vivo, Sprague-Dawley rats", "details": "day 47, mean ± SEM of eight animals; for Glucose: at sacrifice; for Corticosterone / IGF-1 / Insulin: plasma at sacrifice", "method": "as §1, §2, §3\nSamples of trunk blood were taken from the test subjects via […]. The blood samples were collected in tubes containing EDTA, separated by centrifugation, and stored at −20° C. Plasma insulin, IGF-1, and corticosterone levels were all measured using commercial RIA kits (Insulin and Corticosterone kits were both obtained from ICN-Biomedicals, Asse-Relegem, BELGIUM and the rIGF-1 test kit was obtained from Mediagnostic GMbH, Tubingen, GERMANY). Glucose concentration was determined using the Glucotrend® Soft Test System blood glucose meter (Roche Diagnostics, Barcelona, SPAIN).\nas §4"}, "[4]": {"details": "rat; cited from earlier work"}},
  "data": [
    {"compound": "[Aib^2, Glu^3(NH-hexyl)]hGhrelin(1-28)-NH2", "values": [
      {"measurement": "growth suppression induced by DEX", "setting": "[1]; concomitant treatment with DEX, FIG. 3", "value": "reversed"},
      {"measurement": "Final Body Weight", "setting": "[1]", "value": "230.8 ± 4.8", "unit": "g"},
      {"measurement": "Final Nose-Anal Length", "setting": "[1]", "value": "19.3 ± 0.1", "unit": "cm"},
      {"measurement": "Lee Obesity Index", "setting": "[1]", "value": "318 ± 1.4"},
      {"measurement": "Growth Rate", "setting": "[1]", "value": "7.6 ± 0.3", "unit": "g/day"},
      {"measurement": "Epididymal Fat Pads", "setting": "[1]", "value": "1.31 ± 0.07", "unit": "g"},
      {"measurement": "somatic growth as compared to SAL-treated rats", "setting": "[1]; young male rats, FIG. 3, Dunnett's t test", "value": "significantly increased"},
      {"measurement": "food efficiency (ratio body weight gain / food intake) vs saline treatment", "setting": "[2]; FIG. 4B, two out of three determinations", "value": "increased"},
      {"measurement": "cumulative 24-hour food intake vs saline-treated animals", "setting": "[2]; after 10 days from beginning of dexamethasone treatment, FIG. 4A", "value": "increased"},
      {"measurement": "decrease of food efficiency induced by dexamethasone", "setting": "[2]; co-administration with dexamethasone, FIG. 4B", "value": "able to reverse"},
      {"measurement": "Glucose", "setting": "[3]", "value": "122 ± 3", "unit": "mg/dL"},
      {"measurement": "Corticosterone", "setting": "[3]", "value": "235 ± 23", "unit": "ng/mL"},
      {"measurement": "IGF-1", "setting": "[3]", "value": "1653 ± 87", "unit": "ng/mL"},
      {"measurement": "Insulin", "setting": "[3]", "value": "40.4 ± 5.7", "unit": "μIU/ml"}
    ]},
    {"compound": "GHRP-6", "values": [
      {"measurement": "glucocorticoid-mediated GH-inhibition", "setting": "[4]", "value": "able to completely counteract"}
    ]},
    {"compound": "C[C@@H]1C[C@H]2[C@@H]3CCC4=CC(=O)C=C[C@]4(C)[C@@]3(F)[C@@H](O)C[C@]2(C)[C@@]1(O)C(=O)CO", "note": "[Dexamethasone, 9-fluoro-11β,17,21-trihydroxy-16a-methylpregna-1,4-diene-3,20-dione, reference compound]", "values": [
      {"measurement": "Final Body Weight", "setting": "[1]", "value": "185.2 ± 4.2", "unit": "g"},
      {"measurement": "Final Nose-Anal Length", "setting": "[1]", "value": "17.8 ± 0.2", "unit": "cm"},
      {"measurement": "Lee Obesity Index", "setting": "[1]", "value": "321 ± 1.6"},
      {"measurement": "Growth Rate", "setting": "[1]", "value": "5.6 ± 0.2", "unit": "g/day"},
      {"measurement": "Epididymal Fat Pads", "setting": "[1]", "value": "1.14 ± 0.06", "unit": "g"},
      {"measurement": "Glucose", "setting": "[3]", "value": "107 ± 6", "unit": "mg/dL"},
      {"measurement": "Corticosterone", "setting": "[3]", "value": "19 ± 2", "unit": "ng/mL"},
      {"measurement": "IGF-1", "setting": "[3]", "value": "1257 ± 112", "unit": "ng/mL"},
      {"measurement": "Insulin", "setting": "[3]", "value": "50 ± 6", "unit": "μIU/ml"}
    ]}
  ]
}
